The values that follow come from patent publication US20250073230A1, “USE OF PLINABULIN IN COMBINATION WITH IMMUNE CHECKPOINT INHIBITORS” (BeyondSpring Pharmaceuticals, Inc., priority 2015, published 2025).

The structures appear in SMILES notation. “Also recorded” adds a separate entry of the source.

The subject of series [1] is MC-38 tumor cells. As to the kind of experiment: MC-38 tumor model, Plinabulin with PD-1 antibody and CTLA-4 antibody (Example 7). The class given is in vivo, mice. Particulars: Example 7, FIG. 4B; six treatment groups. As for the experimental part: The combined treatment with Plinabulin and a PD-1 checkpoint inhibitor in combination with a CTLA-4 checkpoint inhibitor was tested in comparison with the treatment with Plinabulin alone, the treatment with PD-1 antibody alone, or the treatment with PD-1 antibody in combination with CTLA-4 antibody. The tests were performed using seven to ten-week old mice that were injected subcutaneously with MC-38 tumor cells. Six testing groups were prepared, and each group included 10 mice. Group 1 was administered with IgG2a and plinabulin vehicle; Group 2 was administered with Plinabulin dissolved in diluent at a concentration of 7.5 mg/kg; Group 3 was administered with PD-1 antibody; Group 4 was administered with a Plinabulin/PD-1 antibody combined treatment; Group 5 was administered combined PD-1/CTLA-4 antibodies; and Group 6 was administered combined PD-1 antibody/CTLA-4 antibody/Plinabulin treatment. For the Plinabulin/PD-1 antibody combined treatment (Group 4) and the Plinabulin/PD-1/CTLA-4 antibody treatment (Group 6), the mice were administered twice per week (Day 1 and Day 4 of each week) with Plinabulin (7.5 mg/kg) that was dissolved in diluent, followed by administering antibody (ies) one hour after each Plinabulin administration. […] At necropsy the tissues were weighed and subjected to FACS analysis.

Series [2] concerns SP37A3 DCs. As to the kind of experiment: Expression of DC maturation markers CD40, CD80, CD86 and MHCII by flow cytometry. In kind it is cell-based, mouse. As to conditions: 0.001-10 μM, 20 h. As for the experimental part:
Cell lines: The immature mouse DC cell line SP37A3 (provided by Merck KGaA) was cultured in Iscove's Modified Dulbecco's Medium (IMDM; Sigma) supplemented with 10% heat-inactivated and endotoxin-tested FBS (PAA), sodium pyruvate (Gibco), penicillin/streptomycin L-glutamine mix (Gibco), Eagle's Minimum Essential Medium (MEM) nonessential amino acids (Sigma), Ciproxin (Bayer), and 0.05 mmol/L 2-mercaptoethanol (Gibco). IMDM complete medium was supplemented with 20 ng/mL recombinant mouse GM-CSF and 20 ng/mL recombinant mouse M-CSF (both Peprotech). The murine tumor cell lines EG7 and 3LL-OVA were obtained from ATCC or provided by Douglas T. Fearon (Cancer Research UK Cambridge Institute, Li Ka Shing Centre, University of Cambridge, Cambridge, UK), respectively. All cell lines were tested and validated to be Mycoplasma-free. Expression of OVA in EG7 and 3LL-OVA, and of Thy1.1 in RMAThy1.1, respectively, was confirmed; no genomic authentication was performed.
SP37A3 DCs (murine DC line, Merck) were plated (8×10^4 cells/well, 96-well flat bottom, tissue-culture treated) in 180 uL IMDM complete medium [IMDM medium (Sigma) supplemented with 10% heat-inactivated and endotoxin-tested FBS (PAA), sodium pyruvate (Gibco), penicillin/streptomycin L-glutamine mix (Gibco), MEM nonessential amino acids (Sigma) and 0.05 mM 2-mercaptoethanol (Gibco)]. IMDM complete medium was supplemented with 20 ng/mL recombinant mouse GM-CSF. DCs were allowed to adhere for two hours before Plinabulin, medium, or LPS as controls were added 10× concentrated in 20 uL. DCs were incubated with Plinabulin in various concentrations (0.001 μM, 0.01 μM, 0.1 μM, 1 μM, 10 μM), medium, and LPS respectively for 20 h. Supernatants of these cultures were collected and used for detection of cytokine production by ELISA (kits available from BD) and the cells were stained with the LD-IR viability dye (Invitrogen) as well as with fluorochrom-labeled monoclonal antibodies against CD80, CD86, CD40 and MHCII for flow cytometric analysis. Cells were analyzed using a BD Fortessa Cytometer equipped with DIVA software. Mean fluorescence intensity (MFI) of the DC maturation markers CD40, CD80, CD86 and MHCII in live cells was normalized to the MFI of those markers detected in untreated (medium) DCs.
Two other cancer drugs, Paclitaxel and Etoposide, were also tested to compare their effects on DC maturation with Plinabulin. […] Cells were analyzed using a BD Fortessa Cytometer equipped with DIVA software. Mean fluorescence intensity (MFI) of the DC maturation markers CD40 (FIG. 2A), CD80 (FIG. 2B), CD86 (FIG. 2C) and MHCII (FIG. 2D) in live cells was normalized to the MFI of those markers detected in untreated (medium) DCs. […]
Background: Flow cytometry measures light scatter and fluorescence of single cells or particles in a stream.

The subject of series [3] is SP37A3 DCs. As to the kind of experiment: DC viability (SytoxGreen staining). The class given is cell-based, mouse. As to conditions: FIG. 1B, 0.001-10 μM, 20 h.
The subject of series [4] is SP37A3 DCs. As to the kind of experiment: Production of pro-inflammatory cytokines by DCs (ELISA of supernatants). The class given is cell-based, mouse. Particulars: Example 2, FIG. 3A-3C, 20 h. As for the experimental part: Two other cancer drugs, Paclitaxel and Etoposide, were also tested to compare their effects on DC maturation with Plinabulin. SP37A3 DCs (murine DC line, Merck) were plated (8×10^4 cells/well, 96-well flat bottom, tissue-culture treated) in 180 uL IMDM complete medium [IMDM medium (Sigma) supplemented with 10% heat-inactivated and endotoxin-tested FBS (PAA), sodium pyruvate (Gibco), penicillin/streptomycin L-glutamine mix (Gibco), MEM nonessential amino acids (Sigma) and 0.05 mM 2-mercaptoethanol (Gibco)]. IMDM complete medium was supplemented with 20 ng/mL recombinant mouse GM-CSF. DCs were allowed to adhere for two hours before Plinabulin, Paclitaxel, Etoposide, medium, or LPS (positive control) were added 10× concentrated in 20 uL. […] Cells were analyzed using a BD Fortessa Cytometer equipped with DIVA software. Mean fluorescence intensity (MFI) of the DC maturation markers CD40 (FIG. 2A), CD80 (FIG. 2B), CD86 (FIG. 2C) and MHCII (FIG. 2D) in live cells was normalized to the MFI of those markers detected in untreated (medium) DCs. The production of the pro-inflammatory cytokines IL-1β(FIG. 3A), IL-6 (FIG. 3B), and IL-12p40 (FIG. 3C) were also determined by ELISA.
In general terms: ELISA stands for enzyme-linked immunosorbent assay.

Series [5] relates to MC-38 tumor cells. As to the kind of experiment: FACS analysis of the tumors at necropsy, MC-38 CRC tumor model (Example 7). In kind it is in vivo, mice. On the procedure: The combined treatment with Plinabulin and a PD-1 checkpoint inhibitor in combination with a CTLA-4 checkpoint inhibitor was tested in comparison with the treatment with Plinabulin alone, the treatment with PD-1 antibody alone, or the treatment with PD-1 antibody in combination with CTLA-4 antibody. The tests were performed using seven to ten-week old mice that were injected subcutaneously with MC-38 tumor cells. Six testing groups were prepared, and each group included 10 mice.
Group 1 was administered with IgG2a and plinabulin vehicle; Group 2 was administered with Plinabulin dissolved in diluent at a concentration of 7.5 mg/kg; Group 3 was administered with PD-1 antibody; Group 4 was administered with a Plinabulin/PD-1 antibody combined treatment; Group 5 was administered combined PD-1/CTLA-4 antibodies; and Group 6 was administered combined PD-1 antibody/CTLA-4 antibody/Plinabulin treatment. For the Plinabulin/PD-1 antibody combined treatment (Group 4) and the Plinabulin/PD-1/CTLA-4 antibody treatment (Group 6), the mice were administered twice per week (Day 1 and Day 4 of each week) with Plinabulin (7.5 mg/kg) that was dissolved in diluent, followed by administering antibody (ies) one hour after each Plinabulin administration. For the Plinabulin only treatment (Group 2) or the antibody (ies) only treatment (Groups 3 and 5), mice were administered Plinabulin (7.5 mg/kg dissolved in diluent) or antibody (ies) alone twice per week (Day 1 and Day 4 of each week).
Each treatment started at tumor size of around 125 mm^3 and continued until tumor size of 3000 mm^3 was reached. […] To determine the efficacy of each treatment, the following data were collected: mortality rate prior to tumor size reaching 3000 mm^3; the body weight of the mice assessed twice weekly both prior to treatments; the rate of tumor growth as determined by the tumor size measurement (twice every week); the tumor growth index; overall survival rate; the tumor weight at necropsy; and the time required to increase tumor size 10 fold. […]

As to `CC(C)(C)c1[nH]cnc1/C=c1\[nH]c(=O)/c(=C/c2ccccc2)[nH]c1=O` [Plinabulin, (3Z,6Z)-3-Benzylidene-6-{[5-(2-methyl-2-propanyl)-1H-imidazol-4-yl]methylene}-2,5-piperazinedione], the “mean tumor weight at necropsy” value in series [1] is “decreased tumor weight at necropsy”. Besides, in series [2] (Example 1, FIG. 1A), the “expression of DC maturation markers CD40, CD80, CD86 and MHCII (MFI normalized to untreated DCs)” value is on record as “significantly increased expression of all four DC maturation markers”. Also, in series [2] (Example 2, FIG. 2A-2D), the “expression of DC maturation markers CD40, CD80, MHCII and CD86 compared with Paclitaxel and Etoposide” value was “much greater expression of all four DC maturation markers”; the “expression of DC maturation markers compared with positive control LPS” value is “significantly increased expression of all four markers”. In addition, the “induction of DC maturation, rank among Plinabulin, Paclitaxel and Etoposide” value in series [2] (Example 2) is “most potent inducer of DC maturation among all three drugs”. Also, the DC viability result in series [3] is “did not change significantly”. For the same compound, in series [4], the “production of IL1b, IL6 and IL12 (IL-12p40) compared with Paclitaxel, Etoposide and LPS” value was “increased production of IL1b, IL6, and IL12”. The “percentage of Treg cells in tumor” value in series [5] (FIG. 5A, vs comparator group without plinabulin) is reported as “reduction in % Treg cells; also recorded: decreased percentage of Regulatory T cells”. The “ratio of CD8+ cells to Treg cells in tumor” value in series [5] (FIG. 5B) is “increase in the ratio of CD8+/Treg cells”. The “percentage of macrophages in CD45+ lymphocytes in tumor” value in series [5] (FIG. 5C, vs respective comparator groups) is given as “decreased percentage of macrophage stained cells”.
